Results as given in patent publication US6153614A, “Piperazinyl pyrimidine dione compounds selective for adrenoceptors” (Abbott Laboratories, priority 1998, dated 2000).
pKi: −log10 of the molar value.

What was measured:
[1] = molecular target: T1, α1A adrenoceptor (rat submaxillary gland) (Rattus norvegicus, UniProt P43140); test: Radioligand binding α1A (rat submaxillary gland), [3H]-prazosin
T1 construct: from tissue; host or cells: rat submaxillary gland membranes
T1 sequence (P43140 1-466): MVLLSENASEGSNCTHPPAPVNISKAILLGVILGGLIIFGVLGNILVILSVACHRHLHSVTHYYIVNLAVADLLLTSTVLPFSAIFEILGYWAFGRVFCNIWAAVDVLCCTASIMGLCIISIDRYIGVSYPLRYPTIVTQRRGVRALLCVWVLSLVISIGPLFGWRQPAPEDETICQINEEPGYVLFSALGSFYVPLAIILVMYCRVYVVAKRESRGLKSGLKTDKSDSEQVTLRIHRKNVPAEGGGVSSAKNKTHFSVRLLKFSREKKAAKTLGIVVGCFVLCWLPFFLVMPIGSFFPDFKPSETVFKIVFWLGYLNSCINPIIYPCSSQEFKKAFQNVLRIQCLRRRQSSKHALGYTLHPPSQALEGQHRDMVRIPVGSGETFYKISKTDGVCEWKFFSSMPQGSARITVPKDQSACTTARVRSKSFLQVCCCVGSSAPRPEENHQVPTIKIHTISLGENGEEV
Experimental: (§1) Representative compounds of the invention were evaluated for α-adrenoceptor binding affinity in vitro using [^3 H]-prazosin as the radioligand and two cloned α1 adrenoceptors expressed in LTK cells: α1b (hamster), and α1d (rat). Additionally, binding affinity against the pharmacologically defined α1A adrenoceptor (rat submaxillary gland) was measured.
On the fifth day of culture, growth medium was removed from cells grown in the roller bottles, and the cells were washed twice with PBS (Sigma, 120 mM NaCl, 2.7 mM KCl, 10 mM Na2 HPO4 --NaH2 PO4, pH=7.4). Cells were detached from the roller bottles by incubating for 15 minutes at 37° C. in a Tris-EDTA solution (10 mM Tris, 100 mM NaCl, 1 mM EDTA, pH=7.4). […]
Briefly, plastic Bioblocks™ (DBM Scientific, Valencia, Calif.) were incubated at 25° C. for 50 minutes with […] of membrane homogenate (diluted with an additional 96 volumes (for cloned adrenoceptors, 12 volumes for submaxillary gland)) in 50 mM Tris-HCl buffer (pH=7.7 at the time of assay), […] of [^3 H]prazosin (0.2 nM final concentration, 75-85 Ci/mmole, DuPont-NEN Corp., Boston, Mass.), and […] of either water (for total binding) or […] phentolamine (final concentration, for non-specific binding). […] Radioactivity was determined by standard liquid scintillation techniques.

[2] = molecular target: T2, α1b (hamster) adrenoceptor (Mesocricetus auratus, UniProt P18841); test: Radioligand binding cloned α1b adrenoceptor expressed in LTK cells, [3H]-prazosin; details: LTK cell membranes, [3H]prazosin 0.2 nM
T2 construct: expressed in transfected cells; cDNA from TULCO
T2 sequence (P18841 1-515): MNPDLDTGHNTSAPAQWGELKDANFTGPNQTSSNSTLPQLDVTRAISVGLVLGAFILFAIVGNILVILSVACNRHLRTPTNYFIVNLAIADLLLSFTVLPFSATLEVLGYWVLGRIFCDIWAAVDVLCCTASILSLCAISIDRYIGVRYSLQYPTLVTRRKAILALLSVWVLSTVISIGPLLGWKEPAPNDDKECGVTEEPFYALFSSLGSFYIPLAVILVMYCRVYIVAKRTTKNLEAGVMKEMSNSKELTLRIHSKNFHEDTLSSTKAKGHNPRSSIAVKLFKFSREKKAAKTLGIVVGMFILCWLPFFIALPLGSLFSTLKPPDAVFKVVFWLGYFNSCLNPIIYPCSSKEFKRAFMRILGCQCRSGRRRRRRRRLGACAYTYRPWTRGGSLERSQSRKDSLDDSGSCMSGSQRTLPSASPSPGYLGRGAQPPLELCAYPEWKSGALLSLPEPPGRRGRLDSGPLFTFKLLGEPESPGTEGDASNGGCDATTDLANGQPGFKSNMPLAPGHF
Experimental: as §1
(§2) The cDNA clones encoding the α-1 adrenoceptors (α1b and α1d) were obtained from TULCO (Triangle Universities Licensing Consortium, Research Triangle Park, N.C.) and inserted into the eukaryotic expression vector SnaB30. In this vector, expression of the adrenoceptor gene is under the transcriptional control of an SV40 early promoter. Positive drug selection is provided by a neomycin-resistance gene. Mouse fibroblast cells (LTK) were transfected with the α1 expression plasmids and grown in Dulbecco's modified Eagle's medium (DMEM) containing 10% fetal calf serum and […] G418. Stable G418-resistant parental lines were generated and successful expression of adrenoceptor protein was monitored using radioligand binding techniques. Stable single cell clones derived from the parental lines were screened in adrenoceptor binding assays to identify clones having high adrenoceptor density. Roller bottle cultures of the cloned lines were used to provide cell membranes for subsequent adrenoceptor binding characterization studies. A cell line containing the SnaB30 vector expressing the human erythropoietin gene served as a negative control.
For adrenoceptor binding assays, large scale membrane preparations were utilized in which 6 million cells were seeded into small (450 cm^2) Corning tissue culture roller bottles. 200 mL of DMEM containing 10% fetal calf serum and […] G418 were added to each roller bottle. A 95% air/5% CO2 gas mixture (sterile) was injected into each roller bottle prior to sealing. The bottles were incubated at 37° C. on a roller rack for 5 days. Cells were re-fed with fresh medium after 3 days in culture.
On the fifth day of culture, growth medium was removed from cells grown in the roller bottles, and the cells were washed twice with PBS (Sigma, 120 mM NaCl, 2.7 mM KCl, 10 mM Na2 HPO4 --NaH2 PO4, pH=7.4). Cells were detached from the roller bottles by incubating for 15 minutes at 37° C. in a Tris-EDTA solution (10 mM Tris, 100 mM NaCl, 1 mM EDTA, pH=7.4). The cell suspension from each roller bottle was decanted into preweighed centrifuge tubes and kept on ice. An aliquot of each cell suspension was generally taken for cell counting. Cells were centrifuged at 3000×G for 5 min at 2-4° C., washed with PBS and recentrifuged. The supernatant was decanted and the pellet was weighed to determine the wet weight of cells. Cells were washed a final time in 40 vol 5 mM Tris-HCl, 5 mM EDTA, pH=7.7, centrifuged at 40,000×G for 10 minutes, homogenized in 10 mL of 50 mM Tris-HCl, 5 mM EDTA (pH=7.4), and diluted to 40 mL/tube. Homogenates were centrifuged at 40,000×G for 10 minutes. The supernatant was decanted and the pellets were rehomogenized in 50 mM Tris-HCl (pH=7.4) and centrifuged as before.
Briefly, plastic Bioblocks™ (DBM Scientific, Valencia, Calif.) were incubated at 25° C. for 50 minutes with […] of membrane homogenate (diluted with an additional 96 volumes (for cloned adrenoceptors, 12 volumes for submaxillary gland)) in 50 mM Tris-HCl buffer (pH=7.7 at the time of assay), […] of [^3 H]prazosin (0.2 nM final concentration, 75-85 Ci/mmole, DuPont-NEN Corp., Boston, Mass.), and […] of either water (for total binding) or […] phentolamine (final concentration, for non-specific binding). Following equilibration, bound radioligand was separated from free on GF/B filters (presoaked in 0.5% polyethyleneamine) using either a Brandel or Packard cell harvester. Radioactivity was determined by standard liquid scintillation techniques.

[3] = tested on: EPI induced increase in canine IUP; test: In vivo intraurethral pressure (IUP) in canines, inhibition of EPI induced increase; parameters: species or system Beagle dogs; details: in vivo pseudo pA2 by Schild analysis; antagonist i.v.; epinephrine; propranolol-treated dogs; * (tamsulosin): add 0.4 if slope adjusted to 1
Experimental: The intraurethral pressure (IUP) model in aged canines is an accepted model of measuring the effect of prostate smooth muscle contraction on urethral tone. Canines also have an enclosed prostate covering the urethral shaft and thus provide an anatomical correlate with humans.
Beagle dogs (Marshall Farms) greater that 2 years of age and weighing between 12 and 15 kg were pre-anesthetized with thiopental sodium 15 mg/kg i.v. (Pentothal™, Abbott Laboratories, Abbott Park, Ill.) then placed under general anesthesia (isoflurane). A 7F Swan-Ganz balloon catheter (Multiflex-list no. 41224-01, Abbott) was lubricated with a water soluble jelly, inserted into the urethral orifice and advanced approximately 40 cm in male dogs (considerably less in females) until the balloon tip was placed well inside the bladder. The balloon was then inflated with 1 mL of room air, and the catheter was slowly withdrawn just past the first resistance that is felt at the bladder neck. Preliminary experiments in which dogs were sacrificed after such placement confirmed that this technique results in consistent positioning of the balloon within the prostatic urethra in males or the corresponding location in females. The balloon port of the catheter was connected to a Gould Statham P23Dd pressure transducer interfaced to a computerized data acquisition system (Modular Instruments, Inc., Malvern, Pa.) for the measurement of intraurethral pressure (IUP).
Dogs were then treated with propranolol to block the β-adrenoceptor agonist effects of test agonists. Dose-response curves of the intraurethral pressor effect of epinephrine (EPI) were obtained before and after each of up to 3 increasing doses of a test antagonist (i.v.). Fifteen minutes were allowed after each antagonist dose for equilibration before the next agonist dose-response was initiated. The increase in IUP caused by a given agonist dose was allowed to return to baseline before the next dose was given. The estimated antagonist dissociation constant (in vivo pseudo pA2) was determined by Schild analysis (Brune, et al., Drug Development Research, 34:267-275 (1995).

α1d (rat) adrenoceptor = molecular target: T3, α1d (rat) adrenoceptor (Rattus norvegicus, UniProt P23944); test: Radioligand binding cloned α1d adrenoceptor expressed in LTK cells, [3H]-prazosin; details: LTK cell membranes, [3H]prazosin 0.2 nM
T3 construct: expressed in transfected cells; cDNA from TULCO
T3 sequence (P23944 1-561): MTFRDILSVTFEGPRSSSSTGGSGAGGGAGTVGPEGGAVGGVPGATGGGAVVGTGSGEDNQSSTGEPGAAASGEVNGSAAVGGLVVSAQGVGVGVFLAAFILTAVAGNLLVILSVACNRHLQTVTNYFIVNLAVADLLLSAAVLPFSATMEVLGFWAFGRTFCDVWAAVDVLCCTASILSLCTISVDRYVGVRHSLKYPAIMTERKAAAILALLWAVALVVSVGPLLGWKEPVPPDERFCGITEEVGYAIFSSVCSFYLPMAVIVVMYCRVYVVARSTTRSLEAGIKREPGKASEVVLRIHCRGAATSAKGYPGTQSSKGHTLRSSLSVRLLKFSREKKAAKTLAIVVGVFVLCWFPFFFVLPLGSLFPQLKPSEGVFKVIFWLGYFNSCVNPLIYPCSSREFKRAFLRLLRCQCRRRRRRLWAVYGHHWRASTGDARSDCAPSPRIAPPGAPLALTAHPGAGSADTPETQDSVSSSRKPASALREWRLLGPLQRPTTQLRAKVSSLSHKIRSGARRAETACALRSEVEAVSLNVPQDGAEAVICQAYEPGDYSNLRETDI
Experimental: as §1
as §2, with “A cell line containing the SnaB30 vector expressing the human erythropoietin gene served as a negative control.” left out

Row | Compound | pKi [1] | pKi [2] | IUP (pA2) [3] | pKi (α1d (rat) adrenoceptor)
1 | CCOc1ccccc1OCCN[C@H](C)Cc1ccc(OC)c(S(N)(=O)=O)c1 [tamsulosin, reference compound] | 10.55 | 9.69 | 8.91 | 
2 | COc1cc2nc(N3CCN(C(=O)C4CCCO4)CC3)nc(N)c2cc1OC (stereo not drawn) [terazosin, reference compound] |  |  | 6.97 | 9.00
3 | COc1ccccc1N1CCN(CCn2c(=O)[nH]c3scc(-c4cccc(C)c4)c3c2=O)CC1 [Example 4, 3-[4-(2-methoxyphenyl)piperazinylethyl]-5-(3-methylphenyl)thieno[2,3-d]pyrimidine-2,4-dione] |  | 8.56 |  | 
4 | COc1ccccc1N1CCN(CCn2c(=O)[nH]c3sc(C)c(-c4ccccc4)c3c2=O)CC1 [Example 2, 3-[4-(2-methoxyphenyl)piperazinylethyl]-6-methyl-5-phenylthieno[2,3-d]pyrimidine-2,4-dione] |  | 8.61 |  | 
5 | COc1ccccc1N1CCN(CCn2c(=O)[nH]c3sc(-c4ccccc4)cc3c2=O)CC1 [Example 5, 3-[4-(2-methoxyphenyl)piperazinylethyl]-6-phenylthieno[2,3-d]pyrimidine-2,4-dione] |  | 8.73 | 8.47 | 
6 | COc1ccccc1N1CCN(CCn2c(=O)[nH]c3scc(-c4ccccc4)c3c2=O)CC1 [Example 1, 3-[4-(2-methoxyphenyl)piperazinylethyl]-5-phenylthieno[2,3-d]pyrimidine-2,4-dione] |  | 8.47 | 7.95 | 
7 | COc1ccccc1N1CCN(CCn2c(=O)c3c(-c4ccccc4)csc3n(C)c2=O)CC1 [Example 3, 3-[4-(2-methoxyphenyl)piperazinylethyl]-1-methyl-5-phenylthieno[2,3-d]pyrimidine-2,4-dione] |  | 8.35 |  | 
